Test results: PMC6346587, “Glucose 6-phosphate dehydrogenase 6-phosphogluconolactonase: characterization of the Plasmodium vivax enzyme and inhibitor studies” (Malaria Journal, 2019)
Several values for one entry are separate records, joined by “and”; a condition that tells them apart may be missing. Equal values may be shown once.

Tests used:
[1] = test system: P. falciparum 3D7[hGrx1-roGFP2] cytosolic glutathione-dependent redox potential; experiment: Cytosolic glutathione redox sensor hGrx1-roGFP2, confocal live cell imaging (CLSM); type: cell-based, Plasmodium falciparum; conditions: for Oxidation of the hGrx1-roGFP2 sensor: comparable to 1 mM DIA
Procedure: A Leica confocal system TCS SP5 inverted microscope equipped with the objective HCX PL APO 63.0 × 1.30 GLYC 37 °C UV connected to a 37 °C temperature chamber was used. The argon laser power was set to 20%; scanning was performed at 400 Hz frequency and at a 512 × 512 pixel resolution. The smart gain and smart offset were 950 V and −0.9%, respectively. With a sequential scan, the hGrx1–roGFP2 probe was excited at 405 nm and at 488 nm and emission was detected at 500–550 nm. Laser intensity was adjusted to match the full dynamic range of the probe to the dynamic range of the detector (405 nm: 10%, 488 nm: 4%). […] The Leica LAS AF Lite software for fluorescence analysis was used. The 405/488 nm ratio was calculated. The graphs were plotted using the GraphPad Prism 5 software (San Diego, CA, USA). For live cell imaging, only parasites showing fluorescent signals at both 405 and 488 nm excitation and an intact host cell were chosen.
The effect of ML304 and the anti-malarial drugs ATS and CQ as reference drugs on P. falciparum were investigated in 4 h and 24 h incubation experiments. […] For 4 h experiments, trophozoite stage parasites (26–30 h) of 3D7^[hGrx1–roGFP2] and NF54^[hGrx1–roGFP2] (6–8% parasitaemia) were magnetically enriched (Miltenyi Biotec, Germany), counted by using a Neubauer hemocytometer (Brand GmbH, Germany), and returned to cell culture (at 2.0 × 10^4 trophozoites μL^−1) for at least 1 h to recover. 1.0 × 10^6 cells in 100 μL cell culture medium were placed into LoBind tubes (Eppendorf, Hamburg, Germany) for 4 h incubation experiments. The parasites were treated with ML304 at 1 μM, 50 μM, and 100 μM, or with the anti-malarial drugs ATS and CQ at approximately 50 × EC50 for 4 h under cell culture conditions. Subsequently, free thiol groups were blocked with 2 mM N-ethylmaleimide (NEM) for 15 min at 37 °C. For 24 h experiments, a 5 mL culture (5% haematocrit, 6–8% parasitaemia) of ring stage parasites (6–10 h post invasion) was treated with ML304 at 1 μM, 5 μM, and 10 μΜ, or the anti-malarial drugs ATS and CQ at approximately 4 × EC50. Prior to enrichment, cysteines were blocked with 2 mM NEM for 15 min at 37 °C. For 4 h and 24 h experiments, cells were washed after incubation and resuspended in Ringer’s solution (122.5 mM NaCl, 5.4 mM KCl, 1.2 mM CaCl2, 0.8 mM MgCl2, 11 mM D-glucose, 25 mM HEPES, 1 mM NaH2PO4, pH 7.4). 50 μL of cells (1.0 × 10^6 cells 50^−1 μL^−1) were seeded onto poly-L-lysine-coated μ-Slides 18 well (flat) (Ibidi, Martinsried, Germany) and measured using CLSM (confocal laser scanning microscopy) with excitation wavelengths at 405 nm and 488 nm. […] Each experiment was carried out three times. Between 10 and 20 microscopy images were taken each time, resulting in at least 30 experimental values per concentration and incubation time. The obtained ratio values were normalized to the control value, which was set to 100. All experiments were carried out within 6 weeks after the appearance of transfectants. Mean and standard error of the mean (SEM) are shown. A one-way ANOVA test with 95% confidence intervals with the Dunnett’s multiple comparison test (GraphPad Prism 5.0) was applied for statistical analysis of significance (*p < 0.05; **p < 0.01; ***p < 0.001).

[2] = test system: P. falciparum NF54[hGrx1-roGFP2] glutathione redox ratio; experiment: Cytosolic glutathione redox sensor hGrx1-roGFP2, fluorescence plate reader; type: cell-based, Plasmodium falciparum
Procedure: NF54^[hGrx1–roGFP2] parasites were washed and resuspended after incubation in pre-warmed Ringer’s solution to a concentration of […]. 10 µL of cells (1 × 10^6 iRBCs) were transferred to each well of a 384-well plate (black, flat bottom, Greiner Bio-One, Frickenhausen, Germany) and were measured with the plate reader Clariostar (BMG Labtech, Ortenberg, Germany) with excitation wavelengths at 405 nm and 475 nm (emission 510 nm). The gain of the 405 nm and 475 nm excitation wavelengths was adjusted to match the full dynamic range of the hGrx1–roGFP2 redox sensor. The 405/475 nm ratio was then calculated. The graphs were plotted using the GraphPad Prism 5 software (San Diego, CA, USA). A one-way ANOVA test with 95% confidence intervals with the Dunnett’s multiple comparison test (GraphPad Prism 5.0) was applied for statistical analysis of significance (*p < 0.05; **p < 0.01; ***p < 0.001).
Recently, the cytosolic glutathione redox sensor was stably integrated into NF54-attB parasites. The direct response of NF54^[hGrx1–roGFP2] to mid- and long-term exposures were determined using the time-efficient plate reader (Clariostar). […] As depicted in Fig. 7, ML304 oxidized the cytosol, leading to an increase of the 405/488 nm ratio of the probe in a concentration-dependent manner with significant differences after a 24 h incubation.

hG6PD = target: T1, hG6PD (Homo sapiens, UniProt P11413); conditions: ML304; read-out: IC50 on human G6PD; cited from earlier work
T1 construct: made in house

P. falciparum 3D7 = conditions: chloroquine-sensitive strain; cited from earlier work
P. falciparum Dd2 = test system: P. falciparum Dd2; set-up: method as in PMID 24501782; conditions: CQ resistant strain; cited from earlier work
[3] = test system: human hepatocyte cell lines; set-up: method as in PMID 24501782; conditions: cited from earlier work
Plasmodium gametocytes = conditions: cited from earlier work

T1 sequence (P11413 whole entry): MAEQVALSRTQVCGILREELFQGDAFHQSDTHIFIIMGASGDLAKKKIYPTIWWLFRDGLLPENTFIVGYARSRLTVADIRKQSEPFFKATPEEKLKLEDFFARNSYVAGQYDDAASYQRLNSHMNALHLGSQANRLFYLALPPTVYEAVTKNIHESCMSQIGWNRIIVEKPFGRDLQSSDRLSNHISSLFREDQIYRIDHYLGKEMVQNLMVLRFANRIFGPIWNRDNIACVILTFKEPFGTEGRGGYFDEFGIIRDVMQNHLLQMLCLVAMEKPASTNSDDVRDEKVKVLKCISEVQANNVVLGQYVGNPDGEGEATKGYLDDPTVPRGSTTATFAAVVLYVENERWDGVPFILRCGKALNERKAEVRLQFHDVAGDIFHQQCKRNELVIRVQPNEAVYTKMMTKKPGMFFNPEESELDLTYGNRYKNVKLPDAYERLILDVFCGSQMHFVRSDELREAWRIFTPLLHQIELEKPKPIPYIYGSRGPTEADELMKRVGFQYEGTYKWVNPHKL

With CCN1CCC[C@@H]1CNC(=O)c1ccc2c(c1)NC(=O)c1cccc(C)c1S2 [ML304] the “Oxidation of the hGrx1-roGFP2 sensor” value ([1]; 5 µM, 24 h incubation) was “completely oxidize the sensor”, the “Oxidation of the hGrx1-roGFP2 sensor” value ([1]; 50 µM, 4 h incubation) was “completely oxidize the sensor” and the “Effect on 405/488 nm ratio of hGrx1-roGFP2” value ([1]; 4 h incubation, trophozoites, 1, 50 and 100 µM (p < 0.05 at 1 µM, p < 0.001 at 50 and 100 µM)) was “significant effects”. The “Effect on 405/488 nm ratio of hGrx1-roGFP2” value ([1]; 24 h incubation, ring stage (p < 0.05 at 1 µM, p < 0.001 at 50 µM and 100 µM as printed)) was “significantly increased”, the “Increase of 405/475 nm fluorescence ratio” value ([2]; 8.88 µM, 24 h, ring stage, p < 0.01) was “threefold” and the “Effect on fluorescence ratio” value ([2]; 4 h incubation, trophozoite stage, 1 to 100 times EC50) was “concentration-dependent increase in fluorescence ratio”. The IC50 (hG6PD) was 80 µM and > 80 µM, the “Active concentration on P. falciparum 3D7 in cell culture” value (P. falciparum 3D7) was “lower than 1 µM” and the “Active concentration on P. falciparum Dd2 in cell culture” value (P. falciparum Dd2) was “about 5 µM”. For the same compound, the “LD50 against human hepatocyte cell lines” value [3] was > 50 µM, the “Effect on viability of Plasmodium gametocytes” value (Plasmodium gametocytes) was “strongly impair the viability” and the “Interaction with methylene blue on late stage gametocytes” value (Plasmodium gametocytes) was “synergistic effects”.
